# Patent US20110039779A1, “IGF-1R BINDING PROTEINS AND ANTAGONISTS” (priority 2007, published 2011)
# Where “and” joins values, the source holds several entries; their conditions need not be identical. Equal entries are not always repeated. Where two headings read alike, the source gives them in different places. Where a SMILES comes first, the peptide text is derived from it.
# Experiments:
# SW480 cells = format: cell-based
# Procedure: (§1) For cell growth/density studies, a mitochondrial activity assay was used, as exemplified by the following. Cells (SW480, MCF-7S8) were propagated in complete medium (DME: F12, 10% FCS (SW 480) or 5% FCS (MCF-7S8, P/S)), trypsinized, and seeded in 96 well plates as 10,000 cells/well in medium with 0.5% FCS. All wells in the periphery were omitted and only filled with medium. […] All treatments are made in triplicates. […] Treatment was continued for 48 hours (SW480 cells) or 72 hours (MCF-7S8 cells) before quantification of the cell density. Media was exchanged each day. Media and peptides were diluted in DMSO. When measuring cell density, the volume of each well was adjusted to […] Pre-diluted WST-1 (1 ml+1.5 ml DME:F12) was added as 25 μL to each well including background samples. Three wells with media only served as background controls. The cells were incubated for 90 min protected against light in an incubator.
# [1] = molecular target: T1, His-tagged soluble recombinant human IGF-IR (srhIGF-1R-his) (Homo sapiens, UniProt P08069); experiment: ALPHAScreen competition binding assay, biotinylated hIGF-1
# T1 construct: The extra-cellular domain of IGF-1R was obtained as a recombinant protein from R&D Systems; purchased R&D Systems, Inc., Minneapolis, Minn
# T1 sequence (P08069 31-736 limits assumed): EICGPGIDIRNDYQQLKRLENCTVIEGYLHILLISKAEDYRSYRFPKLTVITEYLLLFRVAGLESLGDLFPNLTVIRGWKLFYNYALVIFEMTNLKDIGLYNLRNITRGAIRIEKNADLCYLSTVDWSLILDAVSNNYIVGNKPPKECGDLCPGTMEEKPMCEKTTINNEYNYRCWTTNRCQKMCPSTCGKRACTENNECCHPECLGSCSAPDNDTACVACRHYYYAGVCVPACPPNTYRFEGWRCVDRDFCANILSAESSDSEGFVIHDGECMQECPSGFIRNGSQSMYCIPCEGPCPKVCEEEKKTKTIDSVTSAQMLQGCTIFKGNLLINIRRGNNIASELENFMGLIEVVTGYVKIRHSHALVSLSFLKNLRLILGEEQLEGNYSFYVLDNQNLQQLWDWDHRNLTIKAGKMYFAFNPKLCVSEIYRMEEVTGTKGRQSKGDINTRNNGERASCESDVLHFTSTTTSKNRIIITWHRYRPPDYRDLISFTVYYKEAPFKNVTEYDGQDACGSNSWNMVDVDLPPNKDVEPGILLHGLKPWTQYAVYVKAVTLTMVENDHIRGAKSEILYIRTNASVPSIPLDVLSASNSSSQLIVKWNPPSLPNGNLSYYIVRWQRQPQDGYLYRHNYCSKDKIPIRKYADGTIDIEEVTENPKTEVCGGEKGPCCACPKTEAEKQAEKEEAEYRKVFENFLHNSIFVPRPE
# T1 sequence (P08069 741-935 limits assumed): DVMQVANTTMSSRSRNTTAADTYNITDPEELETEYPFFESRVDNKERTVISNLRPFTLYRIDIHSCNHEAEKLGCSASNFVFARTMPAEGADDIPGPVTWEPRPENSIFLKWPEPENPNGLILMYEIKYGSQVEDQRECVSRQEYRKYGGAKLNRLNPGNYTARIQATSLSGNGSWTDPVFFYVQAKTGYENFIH
# Procedure: Binding Assays. […] Detection of the receptor ligand interaction was measured in an amplified luminescent proximity homogeneous assay (ALPHAScreen; BioSignal-Packard, Montreal). The assay was performed in 384-well Nunc™ white polystyrene microplates (Nalge Nunc International, Naperville, Ill.) with a final volume of 40 μL. […] Each concentration of competitor was assayed in duplicate. Non-specific binding was determined in the presence of 3×10^−5 M hIGF-1. The second step of the assay was to add acceptor beads and the incubation continued for 0.5 hr. The final step was to add donor beads and the incubation continued for an additional 1 hr. […] Primary data were background corrected, normalized to buffer controls and then expressed as % Specific Binding. The data were fit to a four-parameter non-linear regression analysis (y=min+(max-min)/(1+10̂((log IC50-x)*Hillslope))), which was used to determine IC50 values. The Z′-factor for this assay is greater than 0.7 (Z′=1-(3σ++3σ−)/|μ+−μ−|) and the signal-to-background (SB) ratio was between 40 and 70.
# MiaPaCa cells = experiment: cell assay (WST-1), antagonism of IGF-1, MiaPaCa; format: cell-based, human; conditions: 5×10^−8 M IGF-1; 72 h; FIG. 10C
# Procedure: (§2) Cell Assays. MCF7 or MiaPaCa cells were plated in 96 well plates at a concentration of 3×10^3 cells/well in 75 μL of serum-free RPMI-1640 and incubated overnight at 37° C. Dilutions of the peptides were prepared in a separate working plate and 75 μL added to the cells. […] Plates were incubated for 48-72 hours at 37° C. Viability was measured by the addition of 10 μL WST-1/well (Roche) as per the manufacturer's instructions.
# MCF7 cells [2] = molecular target: T2, MCF7 cells (Homo sapiens, UniProt P08069); experiment: cell assay (WST-1), antagonism of IGF-1, MCF7; format: cell-based; conditions: 5×10^−8 M IGF-1; 72 h; FIG. 10B
# T2 sequence (P08069 31-736): as the sequence (P08069 31-736 limits assumed) above
# Procedure: as §2
# The cells were treated as described in the materials and methods section. […] The data are presented as percent inhibition and to determine binding kinetic parameters data were fit to a four-parameter logistic equation.
# IRS-1 [3] = experiment: IRS-1 phosphorylation in MCF7 cells (immunoprecipitation, Western blot); format: cell-based, human; conditions: 0.5 nM IGF-1, 10 minutes, peptides 30 μM
# Procedure: Preparation of whole-cell lysates, immunoprecipitation, and Western blot analysis. For qualitative IRS-1 phosphorylation analysis, MCF7 cells in monolayer cultures (about 80% of confluency) were used. […] After treatment, cells were rinsed twice with ice-cold PBS containing 0.2 mM PMSF and 1 mM Na3VO4 (all from SIGMA). Cells were scraped into the same buffer and pelleted by centrifugation at 200 g for 3 min. […] Cell lysates were cleared by centrifugation for 5 min at 14 000 g and the resulting supernatant was snap-frozen in EtOH-dry ice and stored at −80° C. The protein concentration was determined using the Dc Protein Assay Kit (Bio-Rad Laboratories).
# Immunoprecipitations were performed with pre-cleared lysates for 4 hours at […] using 0.3-0.5 mg of total protein with 1 μg of polyclonal anti-IRS-1 antibody (Upstate Biotechnology), and 25 μL of Protein A/agarose slurry (SIGMA). Agarose beads with immobilized proteins were washed 3 times with IP wash buffer (50 mM Tris pH 7.5 (GibcoBRL), 150 mM NaCl, 1 mM Na3VO4, 0.2 mM PMSF). […]
# Immunoprecipitates were subjected to SDS-PAGE on 4-15% Tris-HCl Ready Gels and transferred to Trans-Blot Transfer Medium nitrocellulose membranes (both from Bio-Rad Laboratories). […] Blots were exposed to an enhanced […] substrate (ECL Western Blotting Analysis System, Amersham Pharmacia Biotech). […]
# MCF7 cells [4] = molecular target: T2, MCF7 cells; experiment: antagonism assay in starved MCF7 cells, luminescence viability, 72 hrs; format: cell-based; conditions: read-out: Cell; Table 11
# Procedure: Additional binding and antagonism assays using candidate peptides were performed. […] Cell viability was determined by luminescence assay and IC50 was calculated using standard techniques.
# MCF-7S8 cells = MCF-7S8 cells (Homo sapiens, UniProt P08069); experiment: cell growth/density, mitochondrial activity assay (WST-1), MCF-7S8; format: cell-based; conditions: one experiment only
# MCF-7S8 cells, sequence (P08069 31-736): as the sequence (P08069 31-736 limits assumed) above
# Procedure: as §1
# [5] = molecular target: T3, IGF-1R on L6 (with mainly symmetric IGF-1R) (Rattus norvegicus, UniProt P24062); experiment: displacement of IGF-1 binding on L6 cells
# T3 construct: L6 cells predominantly expressing IGF-1R and very limited insulin receptors; endogenous in cells; host or cells: L6 cells
# T3 sequence (P24062 31-737 limits assumed): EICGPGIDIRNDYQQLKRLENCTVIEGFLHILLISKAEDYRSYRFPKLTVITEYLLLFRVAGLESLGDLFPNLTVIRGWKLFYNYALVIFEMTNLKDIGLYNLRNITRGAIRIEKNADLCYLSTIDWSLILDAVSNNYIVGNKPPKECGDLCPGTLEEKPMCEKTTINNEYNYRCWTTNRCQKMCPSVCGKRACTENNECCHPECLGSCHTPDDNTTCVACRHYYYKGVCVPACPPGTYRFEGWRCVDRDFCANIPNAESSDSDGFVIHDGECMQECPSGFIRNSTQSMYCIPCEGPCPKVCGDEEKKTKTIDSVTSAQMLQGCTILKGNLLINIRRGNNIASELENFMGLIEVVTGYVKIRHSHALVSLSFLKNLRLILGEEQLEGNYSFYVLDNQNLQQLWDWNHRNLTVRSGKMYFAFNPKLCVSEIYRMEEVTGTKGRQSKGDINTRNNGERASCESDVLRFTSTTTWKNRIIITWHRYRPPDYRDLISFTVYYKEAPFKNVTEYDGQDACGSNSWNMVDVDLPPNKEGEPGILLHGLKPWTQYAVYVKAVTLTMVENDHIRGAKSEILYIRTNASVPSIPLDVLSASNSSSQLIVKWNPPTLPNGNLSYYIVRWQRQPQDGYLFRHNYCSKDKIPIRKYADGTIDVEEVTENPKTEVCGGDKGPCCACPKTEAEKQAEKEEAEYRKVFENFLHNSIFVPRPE
# T3 sequence (P24062 742-1370 limits assumed): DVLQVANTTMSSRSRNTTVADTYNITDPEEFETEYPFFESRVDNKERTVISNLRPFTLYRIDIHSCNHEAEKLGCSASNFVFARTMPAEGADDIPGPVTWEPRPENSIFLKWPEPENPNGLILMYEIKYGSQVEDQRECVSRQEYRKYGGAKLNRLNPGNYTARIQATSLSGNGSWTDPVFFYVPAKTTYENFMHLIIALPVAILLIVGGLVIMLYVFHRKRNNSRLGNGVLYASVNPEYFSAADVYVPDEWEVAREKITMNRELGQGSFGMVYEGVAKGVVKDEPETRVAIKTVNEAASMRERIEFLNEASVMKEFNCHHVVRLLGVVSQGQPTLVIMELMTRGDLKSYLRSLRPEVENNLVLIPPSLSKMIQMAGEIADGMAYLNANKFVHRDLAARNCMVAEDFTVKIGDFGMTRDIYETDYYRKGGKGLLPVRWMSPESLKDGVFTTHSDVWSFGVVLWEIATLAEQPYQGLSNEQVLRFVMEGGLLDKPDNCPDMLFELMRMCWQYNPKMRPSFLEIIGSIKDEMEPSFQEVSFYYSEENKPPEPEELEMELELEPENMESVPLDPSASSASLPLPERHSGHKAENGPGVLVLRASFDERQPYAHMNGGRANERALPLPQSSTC
# insulin receptor/IGF-1R = experiment: tyrosine phosphorylation of insulin receptor/IGF-1R in L6-hIR cells (Western blot); format: cell-based
# PKB/Akt = experiment: downstream signaling in L6 cells: PKB/Akt; format: cell-based; conditions: 3 nM IGF-1, read-out: PKB/Akt, IC50 for down regulation of the stimulation to the basal level
# Procedure: (§3) The tyrosine phosphorylation of IRS signaling (the 180 kDa band on a tyrosine phosphor Western blot) as well as activation of effectors MAPK 44 and 42 and PKB were analyzed by using antibodies specific for their active forms using methods substantially similar to those described in Example 14 of the '246 PCT application.
# (§4) The effect of select peptides on downstream signaling (MAPK44, MAPK42, PKB/Akt, IRS-1, and IGF-1R) was also measured by studying the signaling in L6 cells predominantly expressing IGF-1R and very limited insulin receptors. […] The antagonistic effect of the peptides can be seen to affect all the downstream signaling from the IGF-1R.
# [6] = tested on: IGF-1R, IRS-1, MAPK42/44 and PKB/Akt; experiment: IGF-1 induced phosphorylation (IGF-1R, IRS-1, MAPK42/44, PKB/Akt) in L6 and L6 hIR cells, summary in description; format: cell-based; conditions: read-out: phosphorylation of IGF-1R and MAPK42/44 in response to IGF-1 treatment, IC50
# Procedure: The activation of HIR or HIGF-1R in adipocytes was measured by stimulating the cells and studying the level of tyrosine phosphorylation (Western blot) of the insulin receptor/IGF-1R. […] The IGF-1R will be present in symmetric homodimer complex as well as in the heterodimer with half insulin receptor.
# as §3, §4
# IRS-1 [7] = experiment: downstream signaling: IRS-1 tyrosine phosphorylation; format: cell-based
# Procedure: as §3, §4
# MAPK42 = experiment: downstream signaling in L6 cells: MAPK42; format: cell-based; conditions: 3 nM IGF-1, read-out: MAPK42, IC50 for down regulation of the stimulation to the basal level
# Procedure: as §3, §4
# [8] = tested on: SGBS adipocytes transfected with HIR-encoding DNA; experiment: 3H glucose incorporation (insulin agonist activity) in SGBS adipocytes; format: cell-based
# Procedure: Insulin increases uptake of ^3H glucose into adipocytes and its conversion into lipid. Incorporation of ^3H into the lipid phase was determined by partitioning of lipid phase into a scintillant mixture, which excludes water-soluble ^3H products. […] The results are expressed as increase relative to full insulin response.
# MAPK44 = experiment: downstream signaling in L6 cells: MAPK44; format: cell-based; conditions: 3 nM IGF-1, read-out: MAPK44, IC50 for down regulation of the stimulation to the basal level
# Procedure: as §3, §4
# [9] = tested on: L6 hIR (with mainly hybrid IGF-1R/IR); experiment: displacement of IGF-1 binding on L6 hIR cells
# L6 hIR (with mainly hybrid IGF-1R/IR), sequence (P24062 31-737 limits assumed): as the sequence (P24062 31-737 limits assumed) above
# L6 hIR (with mainly hybrid IGF-1R/IR), sequence (P24062 742-1370 limits assumed): as the sequence (P24062 742-1370 limits assumed) above
# IGF-IR = experiment: downstream signaling in L6 cells: IGF-IR; format: cell-based; conditions: 3 nM IGF-1, read-out: IGF-IR, IC50 for down regulation of the stimulation to the basal level
# Procedure: as §3, §4
# [10] = read-out: IC50 in SW480 (M) in presence of IGF-1/alone: in presence of IGF-1, first value of the cell: concentration needed to blunt the effect of 10 nM IGF-1, cells in words only = effect as reported, 48 hours
compound,measurement,setting,value
SFYSCLESLVNGPAEKSRGQWDGCRK [Peptide F250],IC50,SW480 cells; [10],2e-06 M and 1e-06 M
same,competition of IGF-1 binding,[1]; FIG. 10A,competes IGF-1 binding
same,antagonism of IGF-1 activity in MiaPaCa cells,MiaPaCa cells,antagonism of IGF-1 activity in MiaPaCa cells
same,antagonism of IGF-1 activity in MCF-7 cells,MCF7 cells [2],antagonism of IGF-1 activity in MCF-7 cells
same,IGF-1-induced phosphorylation of IRS-1,IRS-1 [3],inhibited
CC(C)C[C@H](NC(=O)[C@H](CS)NC(=O)[C@H](CO)NC(=O)[C@H](Cc1ccc(O)cc1)NC(=O)[C@H](Cc1ccccc1)NC(=O)[C@@H](N)[C@@H](C)O)C(=O)N[C@@H](C)C(=O)N[C@@H](CO)C(=O)N[C@@H](CC(C)C)C(=O)N[C@@H](CC(C)C)C(=O)N[C@H](C(=O)NCC(=O)N[C@H](C(=O)N1CCC[C@H]1C(=O)N[C@@H](CCC(N)=O)C(=O)N1CCC[C@H]1C(=O)N[C@@H](CC(N)=O)C(=O)N[C@@H](CCCNC(=N)N)C(=O)NCC(=O)N1CCC[C@H]1C(=O)N[C@@H](Cc1c[nH]c2ccccc12)C(=O)N[C@@H](CCC(=O)O)C(=O)N[C@@H](CCCNC(=N)N)C(=O)N[C@@H](CS)C(=O)N[C@@H](CCCNC(=N)N)C(=O)O)[C@@H](C)O)[C@@H](C)O [RP6] (H-TFYSCLASLLTGTPQPNRGPWERCR-OH),IC50,[1],2.7 µM
same,IC50,MCF7 cells [4],9 µM
ESYGDCRDRPCGDAPNFYDWFVQQASE [Peptide F270],IC50 in SW480 (M) in presence of IGF-1/alone: in presence of IGF-1,"SW480 cells; first value of the cell: concentration needed to blunt the effect of 10 nM IGF-1, cells in words only = effect as reported, 48 hours",agonistic?
same,IC50,SW480 cells; [10],2e-06 M
same,effect on MCF-7,MCF-7S8 cells,agonistic effects
SFYSCLESLVQGPAEKSRGQWEGCRK [Peptide F293],concentration displacing IGF-1 binding to IGF-1R on L6,[5],150 nM
same,IC50,"SW480 cells; read-out: IC50 in SW480 (M) in presence of IGF-1/alone: alone, second value of the cell: concentration needed to inhibit basal level in 0.5% FCS",1e-07 M
same,"inhibition of basal growth of SW480, doses",SW480 cells; without IGF-1,inhibition of basal growth was observed
same,inhibition of IGF-1 induced versus insulin induced phosphorylation,insulin receptor/IGF-1R,more effective on IGF-1 induced phosphorylation as compared to insulin induced phosphorylation
same,effect on insulin stimulated tyrosine phosphorylation,"insulin receptor/IGF-1R; 2 μM peptide, 10 min",marginal effect
same,effect on tyrosine phosphorylation by IGF-1,"insulin receptor/IGF-1R; 2 μM peptide, 10 min",inhibited
same,IC50,PKB/Akt,> 1 µM
same,IC50,[6],0.5 µM
same,effect on IGF-1 stimulated IRS-1 phosphorylation,"IRS-1 [7]; FIG. 4, 10 min",clearly inhibits the IGF-1 stimulated IRS-1 phosphorylation
same,IC50,"IRS-1 [7]; L6 cells, 3 nM IGF-1, read-out: IRS-1, IC50 for down regulation of the stimulation to the basal level",> 1 µM
same,IC50,MAPK42,1 µM
same,effect on glucose uptake induced by insulin or IGF-1,"[8]; SGBS adipocytes, FIGS. 1A and 1B",neither peptide F138 nor peptide F293 has any substantial effect on glucose uptake induced by insulin or IGF-1
same,doses not affecting glucose uptake in response to insulin/IGF-1,[8]; SGBS cells,< 5 µM
same,IC50,MAPK44,0.5 µM
same,concentration displacing IGF-1 binding in L6 hIR,[9],150 nM
same,IC50,IGF-IR,0.5 µM
